Assay results taken from patent US8569270B2, “Diphenyl sulfide derivatives and medicines containing same as active ingredient” (Kyorin Pharmaceutical Co., Ltd., priority 2009, dated 2013).

How the values were obtained:
Human S1P3 receptor = target: T1, Human S1P3 receptor (Homo sapiens, UniProt Q99500); assay: Suppression of S1P-induced cellular calcium mobilization in human S1P3 receptor-expression CHO cells (Schild plot); format: cell-based; details: Schild plot of S1P EC50 shift; test compound 125 nM, 1.25 μM, 12.5 μM; hS1P3 CHO cells; read-out: S1P3 dissociation constant Kd value
T1 construct: expressed in transfected cells; host or cells: CHO cells (Geneticin-selected)
Procedure: Suppression Effect of Test Compound Against Cellular Calcium Mobilization of Human S1P3 Receptor-Expression Cell by S1P (Sphingosine 1-Phosphoric Acid)
Human S1P3 receptor-expression CHO cells were subcultured in a Ham's F-12 culture medium containing 10% fetal bovine serum, and 300 μg/mL of Geneticin. The human S1P3 receptor-expression CHO cells were subjected to 0.25% trypsinization, then recovered from the dish, and floated in a Ham's F-12 culture medium containing 10% fetal bovine serum, and 300 μg/mL of Geneticin. After that, the human S1P3 receptor-expression CHO cells were disseminated into a 96-well black clear bottom plate (BD Falcon Biocoat) so that 7×10^4/100 μL/well of the human S1P3 receptor-expression CHO cells were disseminated. And then, the human S1P3 receptor-expression CHO cells were cultivated for one night at 37° C. under 5% CO2. The next day, the wells were washed 3 times with 100 μL of PBS containing 0.1% fatty acid-free bovine serum albumin (BSA). The culture medium was exchanged with a Ham's F-12 culture medium containing 0.1% BSA, and then starved of serum for 6 hours in an CO2 incubator at 37° C.
The culture medium was thrown away after the 6 hours. Then, 50 μL/well of a Fluo3 loading buffer was added, and the cultures were cultivated for further 1 hour. The Fluo3 loading buffer was prepared as follows. First, equal amounts of Fluo3-AM (Dojindo) and pluronic F-127 (20% DMSO solution, invitrogen) were mixed. Next, the mixture of Fluo3-AM and pluronic F-127 was added to a Hanks-HEPES buffer (balanced salt solution containing 20 mM HEPES (pH, 7.4), 0.1% BSA (fatty acid-free), and 2.5 mM probenecid) to form a Fluo3 loading buffer having a final Fluo3-AM concentration of 4
After incubating for 1 hour, the cultures were washed 3 times with 100 μL of the Hanks-HEPES buffer. Then, 100 μL of the same buffer in which a test compound (125 nM, 1.25 μM, 12.5 μM) or DMSO had been dissolved was added to the cultures, and then incubated for 30 minutes at 37° C. in a microplate spectrophotofluorometer (FLEX Station) (Molecular Device Co., Ltd.). Then, 25 μL of S1P prepared at 5 times the concentration of the final concentration by serial dilution (final concentration of 0.1 nM, 1 nM, 10 nM, 100 nM, and 1 μM) was added, and the fluorescence based on the Fluo3 due to calcium mobilization was detected and measured at an excitation wavelength of 485 nm and a detection wavelength of 525 nm using the same apparatus. Based on the measurement data, the increase in fluorescence was calculated by subtracting the minimum fluorescence intensity from the maximum fluorescence intensity. The measured increase in fluorescence was used to perform a curve approximation of the relationship between the S1P concentration and the increase in fluorescence using PRISM 4 software (GraphPad). Based on the results, the EC50 value of the compound-untreated and the EC50 value of the compound-treated at each concentration were calculated. Schild Plot analysis was performed based on these values to determine dissociation constant Kd value. In Table 1, 1,000 nmol/L>Kd value≧100 nmol/L is indicated as “+,” 100 nmol/L>Kd value≧10 nmol/L is indicated as “++,” 10 nmol/L>Kd value≧1 nmol/L is indicated as “+++,” and 1 nmol/L>Kd value is indicated as “++++.”

IL-1β production = assay: LPS induced sepsis model, IL-1β in tissue by ELISA; format: in vivo, C57BL/6J mouse; details: 10 mg/kg i.v. twice (15 min before and 2 h after LPS), 18 h after LPS
Procedure: The experiment was carried out with reference to the method described in Non-Patent Literature 5 (F. Nissen et al., Nature, 452, 654 (2008)). A solution of 1 mg/ml LPS (lipopolysaccharide) in physiological saline was intraperitoneally administered (10 ml/kg) to a C57BL/6J mouse (Charles River, male, 7 to 8 weeks). The test compound in an amount of 10 mg/kg was intravenously administered twice, 15 minutes before LPS administration and 2 hours after LPS administration. The mouse was dissected 18 hours after LPS administration, and the mesenteric lymph nodes and lungs were excised. The mesenteric lymph nodes were dissolved in 200 μl and the lungs in 1 ml of a dissolving buffer (30 mM Tris (pH7.4), 150 mM NaCl, 0.1% TritonX-100, 2 mM CaCl2, and 2 mM MgCl2). Non-dissolved matter was removed by centrifugal separation. The IL-1β in the tissue solutions was measured using an IL-1β ELISA Kit (Thermo Co., Ltd.). In Table 2, compounds having a suppression rate of 50% or more are indicated as “+++,” compounds having a suppression rate of 50%>suppression rate≧30% are indicated as “++,” and compounds having a suppression rate of 30%>suppression rate 20% are indicated as “+.”
The suppression rate was calculated using the following calculation equation. a=(1−X/Y)×100 [Equation 1] X: IL-1β PRODUCTION AMOUNT WHEN, 10 mg/kg OF TEST COMPOUND WAS ADMINISTERED TO RESPECTIVE TISSUE Y: IL-1β PRODUCTION AMOUNT WHEN TEST COMPOUND WAS NOT ADMINISTERED TO RESPECTIVE TISSUE a: SUPPRESSION RATE (%)

S1P1 receptor [1] = target: T2, S1P1 receptor (Homo sapiens, UniProt P21453); assay: Antagonistic action on the S1P1 receptor using the method of Experiment Example 1; format: cell-based; parameters: expressed in transfected cells
S1P1 receptor [2] = target: T2, S1P1 receptor; assay: Intracellular calcium mobilization derivative (agonist) test in human S1P1 receptor-expression CHO cells; format: cell-based; parameters: expressed in transfected cells; host or cells: CHO cells (Geneticin-selected); details: agonist mode, read-out: EC50 value, intracellular calcium mobilization derivative action
Procedure: Intracellular Calcium Mobilization Derivative Test of Test Compound Against Human S1P1 Receptor-Expression Cell
Human S1P receptor-expression CHO cells (hS1P1 receptor-expression CHO cells, hS1P3 receptor-expression CHO cells, and hS1P4 receptor-expression CHO cells) subcultured in a Ham's F-12 culture medium containing 10% fetal bovine serum, and 200 μg/mL of Geneticin were disseminated into a 96-well black clear bottom plate (coaster) so that 4×10^4 cells/well of the human S1P receptor-expression CHO cells were disseminated. The human S1P3 receptor-expression CHO cells were then cultivated for one night at 37° C. under 5% CO2. A Calcium Screening Kit reagent (Dojindo) was added as a Ca^2+ binding fluorescence indicator, and then the cultures were cultivated for 60 minutes at 37° C. under 5% CO2. After cultivation, the fluoroesence intensity was measured at an excitation wavelength of 485 nm and a detection wavelength of 525 nm using a microplate spectrophotofluorometer (FLEX Station) (Molecular Device Co., Ltd.). S1P prepared in a culture medium so that the concentration would be 10 times that of the final concentration, or a test compound (final DMSO concentration 0.1%) was added 18 seconds after the start of the fluorescence measurement, and the fluorescence intensity was continuously measured every 1.5 seconds until 100 seconds after the addition. […]

[3] = test system: Cecal ligation and puncture sepsis model; assay: Cecal ligation and puncture sepsis model, survival; format: in vivo, Long-Evans rats; details: 0.1 mg/kg/hr continuous i.v. from 2 hours after CLP, rat
Procedure: This model is widely used as a model for polymicrobial abdominal sepsis caused by leakage of intestinal bacteria. The experiment was carried out with reference to the method described in Non-Patent Literature 9 (D. Rittirsch et al., Nature Protocols, 4, 31 (2009)). Long-Evans rats were used (Nihon SLC, male 9 weeks). The abdominal portion of the rats was cut open under isoflurane anesthesia, and the cecum was removed. The cecum was ligated with silk thread, and 3 holes were opened in the tip portion of the cecum using an 18 G syringe needle. After the treatment, the cecum was returned to the body, and the wound was sutured. The rats were then returned to their cages, and observed for 4 days to determine the survival rate. The test compound (0.1 mg/kg/hr) was continuously administered from a cannula stuck in the femoral vein from 2 hours after the CLP treatment.

T2 sequence (P21453 whole entry): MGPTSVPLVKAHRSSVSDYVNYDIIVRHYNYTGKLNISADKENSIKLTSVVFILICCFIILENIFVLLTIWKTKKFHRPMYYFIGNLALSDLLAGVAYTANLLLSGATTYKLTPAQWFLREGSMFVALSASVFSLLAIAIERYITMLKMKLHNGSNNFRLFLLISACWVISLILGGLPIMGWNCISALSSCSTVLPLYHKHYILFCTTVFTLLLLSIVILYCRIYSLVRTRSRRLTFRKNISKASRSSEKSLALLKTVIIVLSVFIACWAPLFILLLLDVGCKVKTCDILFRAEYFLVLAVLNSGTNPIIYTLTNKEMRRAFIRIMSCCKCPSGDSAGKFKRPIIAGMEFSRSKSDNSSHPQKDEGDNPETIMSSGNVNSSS
T1 sequence (Q99500 whole entry): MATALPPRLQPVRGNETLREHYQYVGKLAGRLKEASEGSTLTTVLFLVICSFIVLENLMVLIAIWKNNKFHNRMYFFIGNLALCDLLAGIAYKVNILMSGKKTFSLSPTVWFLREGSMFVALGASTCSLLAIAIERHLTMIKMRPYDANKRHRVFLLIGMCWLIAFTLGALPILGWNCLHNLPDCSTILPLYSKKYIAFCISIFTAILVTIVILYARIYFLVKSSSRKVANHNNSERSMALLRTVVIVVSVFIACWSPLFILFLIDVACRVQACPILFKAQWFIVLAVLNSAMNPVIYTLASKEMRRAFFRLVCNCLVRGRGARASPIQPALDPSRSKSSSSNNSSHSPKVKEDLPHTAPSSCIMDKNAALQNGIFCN

Kd (Human S1P3 receptor) | Kd (S1P1 receptor [1]) | EC50 (S1P1 receptor [2]) | Compound | Suppression Rate for Lung (IL-1β production; mouse lung) | Suppression Rate for Mesenteric Lymph Nodes (IL-1β production; mouse mesenteric lymph nodes) | survival rate after 4 days ([3]; medium group 40%) | survival curve compared with the medium administration group ([3]; observed 4 days)
< 0.001 µM | > 100 µM | > 10 µM | CCC[C@](N)(CCc1ccc(Sc2cc(C(F)(F)F)ccc2O)cc1Cl)COP(=O)(O)O [Example 13] | +++ (suppression rate of 50% or more) | +++ (suppression rate of 50% or more) | – | –
0.1 to 1 µM | > 100 µM | > 10 µM | C[C@](N)(CCc1ccc(Sc2cc(C#N)ccc2O)cc1Cl)COP(=O)(O)O [Example 15, (S)-2-amino-4-[2-chloro-4-(5-cyano-2-hydroxyphenylthio)phenyl]-2-methylbutylphosphoric acid monoester] | – | – | – | –

Compound | Kd (Human S1P3 receptor) | Kd (S1P1 receptor [1]) | EC50 (S1P1 receptor [2]) | Suppression Rate for Lung (IL-1β production; mouse lung) | Suppression Rate for Mesenteric Lymph Nodes (IL-1β production; mouse mesenteric lymph nodes) | survival rate after 4 days ([3]; medium group 40%) | survival curve compared with the medium administration group ([3]; observed 4 days)
CCC[C@](N)(CCc1ccc(Sc2cc(-c3ccccc3)ccc2O)cc1Cl)COP(=O)(O)O [Example 22] | < 0.001 µM | – | – | – | – | 70% | survival curve that had shifted to the right
